From US6818146B2, “Chemical base for engine coolant/antifreeze with improved thermal stability properties” (Shell Oil Company, priority 2001, dated 2004)
Like-named read-outs stand apart in the source and are kept apart here.

What was measured:
[1] = 25° C.; cited from earlier work
Physical property data = assay type: physicochemical
ASTM D1177 freeze point = assay type: physicochemical
From the text: FIG. 1 illustrates the aqueous solution freeze point characteristics of the 1,3-propanediol and GM 6043 (EG). […] This could be an indication that actual protection against hard, damaging freezing is actually better, approaching the effective protection point of the EG-based product. […] We feel that the antifreeze properties of the chemistry are acceptable. Indeed a 50% solution would provide adequate protection against freezing in most geographies. TC in FIG. 1 is an internal designation for the PDO aqueous solutions at 50, 55, and 60 volume percent PDO.

[2] = Extended aging / oxidation comparison on D-4340 rig at 150° C.; assay type: physicochemical; conditions: 150° C. for 60 Days, two fully formulated coolant inhibition packages
[3] = Toxicity LD50 data and review of MSDS

Row | Compound | Thermal Conductivity [1] | Specific Gravity, 20° C. (Physical property data; 20° C.) | Viscosity (Physical property data; 20° C.) | State at the reported freeze point (ASTM D1177 freeze point) | Degradation in terms of pH value and formation of oxidation by-products [2] | Toxicity [3] | Specific Gravity, 20° C. (Physical property data) | Viscosity (Physical property data)
1 | CC(O)CO (stereo not shown) [PG, propylene glycol] | 0.119 BTU/hr-ft-F | 1.032 | 49 cP | – | – | – | – | –
2 | OCCCO [PDO, 1,3-propanediol] | – | 1.0526 | 52 cP | soft and slushy | PDO degraded less | PDO offers low | – | –
3 | OCCO [EG, ethylene glycol] | – | – | – | – | – | – | 1.115 | 17 cP
